Test results taken from US20240156790A1, “COMPOUNDS, COMPOSITIONS, AND METHODS FOR MODULATING FERROPTOSIS AND TREATING EXCITOTOXIC DISORDERS” (THE TRUSTEES OF COLUMBIA UNIVERSITY IN THE CITY OF NEW YORK, priority 2018, published 2024).

Legend:
[1] = test system: HT-1080 cells; experiment: Cell viability assays in HT-1080 cells, ferroptosis induced by IKE or RSL3 (Example 8); type: cell-based; conditions: for IC50: Homo sapiens, HT-1080, 48 h
[2] = Plasma Stability Assay (Examples 6 and 8); type: in vitro ADME, mouse; conditions: for half-life at 20 µM: mouse, plasma diluted 1:1 in phosphate buffer, pH 7.4, experiment I, read-out: t1/2 I; for half-life at 20 µM / t1/2 II: plasma half-life; for t1/2 II: experiment II
Method: (§1) Mouse plasma (GeneTex) was centrifuged at 3000 rpm for 10 min at 10° C. with the resulting supernatant withdrawn and diluted 1:1 in phosphate buffer pH 7.4. To a 96-well polypropylene plate was added 50% mouse plasma phosphate buffer (195 μL). A stock solution of analog in DMSO (0.8 μL. 5 mM) or fer-1 (positive control) was added to a separate well and the components were warmed to 37° C. for 5 min with gentle agitation. The reaction was initiated with the addition of analog to plasma, and the reaction kept at 37° C. for gentle agitation for the duration of the assay. At selected time points, aliquots (15 μL) were withdrawn from the plate and quenched upon addition to cold methanol (60 μL), containing an internal standard (5 μM) in a separate 96-well polypropylene plate. At the completion of the final time-point, the samples were centrifuged at 4,000 rpm for 5 min at 4° C. The supernatant (40 μL) was withdrawn and transferred to a sample vial with insert. The samples were analyzed by LC-MS. LC-MS analysis was performed on a platform comprising a Thermo Scientific Dionex Ultimate 3000 and a Bruker amaZon SL equipped with an electrospray ionization source controlled by Bruker Hystar 3.2. Chromatographic separation was performed by injecting 5 μL of the sample onto an Agilent Eclipse Plus C18 column (2.1×50 mm, 3.5 μm) maintained at 20° C. The flow rate was maintained at 400 μL/min. The initial flow conditions were 80% solvent A (water containing 0.1% acetic acid) and 20% solvent B (methanol containing 0.1% acetic acid). Solvent B was raised to 80% over 0.50 min by 1.50 min. Solvent B was raised to 100% by 5.00 min and held there for 3.25 min. […] All analogs were detected in positive mode as [M+H]*. The percent compound remaining at each time-point was calculated as the ratio of the integrated compound peak over the internal standard peak and standardized to the t=0 time-point. Values were plotted in GraphPad Prism 9 and fit with a one phase decay.
as §1, with “3000 rpm (1053 g) for 10” for “3000 rpm for 10”, “4,000 rpm (1872 g) for 5” for “4,000 rpm for 5”, “phase decay. […]” for “phase decay.”

[3] = ^b 2 μM IKE, 48 hours, 1,000 cells/well
[4] = ^c 0.2 μM RSL3, 48 hours, 1,000 cells/well

| Structure (SMILES) | potency relative to fer-1 at suppressing ferroptosis, in words [1] | stability in mouse plasma, in words [2] | half-life at 20 µM [2] | t1/2 II [2] | time to full degradation in mouse plasma [2] | IC50 [1, 3] | IC50 [1, 4] |
| --- | --- | --- | --- | --- | --- | --- | --- |
| Cc1noc(-c2ccc(NC3CCCCC3)c(NC3CCCCC3)c2)n1 [PHB4082, N1,N2-dicyclohexyl-4-(3-methyl-1,2,4-oxadiazol-5-yl)benzene-1,2-diamine] | more potent than fer-1 |  |  |  |  |  |  |
| CCC(CC)Nc1cc(-c2nc(C)no2)cnc1NC1CCCCC1 [TH-4-55-2, N^2-cyclohexyl-5-(3-methyl-1,2,4-oxadiazol-5-yl)-N^3-(pentan-3-yl)pyridine-2,3-diamine] |  | not metabolized in mouse plasma | > 4 h | >4 h |  |  |  |
| Cc1noc(-c2cnc(NC3CCCC3)c(NC3CCCC3)c2)n1 [TH-4-67, N^2,N^3-dicyclopentyl-5-(3-methyl-1,2,4-oxadiazol-5-yl)pyridine-2,3-diamine] |  | not metabolized in mouse plasma | > 4 h | >4 h |  |  |  |
| CCOC(=O)c1ccc(NC2CCCCC2)c(N)c1 [Fer-1, Ferrostatin-1, reference compound] |  | rapidly degraded in mouse plasma |  |  | less than 15 min | 9.1 nM | 3.6 nM |
| Cc1noc(-c2cnc(NC3CCCCC3)c(NC3CCCCC3)c2)n1 [TH-2-31, N^2,N^3-dicyclohexyl-5-(3-methyl-1,2,4-oxadiazol-5-yl)pyridine-2,3-diamine] | potencies greater than fer-1 | not metabolized in mouse plasma | > 4 h | >4 h |  | 5.6 nM | 4.8 nM |
